How the values were obtained:
Metabolic stability test = type: in vitro ADME; conditions: liver microsomes; human hepatic microsomes, 0 to 60 minutes; read-out: metabolic clearance CLint
Procedure: Human hepatic microsomes and a test substance were reacted for a certain period of time (0 to 60 minutes). The test substance, which was not metabolized in the reaction sample, was measured, and remaining ratio was calculated. The test substance-remaining ratio at the time when the reaction time is 0 hour is taken as 100%. The remaining ratio after incubation was plotted against time as a log-linear plot to obtain a regression line (y=100 e^−kt, k=inclination of straight line: clearance rate constant), and metabolic clearance CLint (mL/min/kg) was calculated by using the following equation. CLint*=k(−min)×52.5(mg MS protein/g liver)×26(g liver/kg)/MS protein (mg MS protein/mL) • *: Davies, B. and Morris T., Physiological parameters in laboratory animals and humans, Pharm. Res., 10(7)1093-1095, 1993 (Test Results)

Wistar male rats = experiment: Rat elevated plus maze test; type: in vivo; conditions: oral, 3 mg/kg, 2 hours before test (FIG. 6)
Procedure: Rat Elevated Plus Maze Test
Anxiolytic effects of the compounds provided by the present invention were investigated by the rat elevated plus maze test.
For the test, 7 to 9 weeks old Wistar male rats were used. […] Each test substance was dissolved in a 4.5% aqueous solution of cyclodextrin, and orally administered 2 hours before the start of the test. The test data were automatically analyzed by using video image action analysis software (Smart3.0, PanLab S.L., PanLab), and wall-less running route staying time ratio (%) was calculated.

human opioid δ receptor = target: T1, human opioid δ receptor (Homo sapiens, UniProt P41143); experiment: Opioid receptor function test (Lance Ultra cAMP Kit), δ receptor; type: cell-based
T1 construct: host or cells: CHO cells
Procedure: Opioid Receptor Function Test
The functional activities of the compounds provided by the present invention on the μ, δ, and κ opioid receptors were investigated.
The test was performed by using Lance Ultra cAMP Kit (PerkinElmer) according to a method predetermined for the kit. In the evaluation of the agonistic activity, CHO cells expressing each of the human opioid receptors (δ, μ, and κ, accession numbers and catalog numbers are mentioned below) and 10 μM of each test compound were reacted for 30 minutes in an assay buffer (1× HBSS, […], pH 7.4, […] (isobutylmethylxanthine), 7.5% BSA) in the presence of forskolin. Subsequently, the cAMP detection reagent included in the kit was added, and 1 hour afterward, time-resolved fluorescence measurement was performed by using the EnVision plate reader (PerkinElmer). The test compounds and the control drugs (δ: SNC80, μ: DAMGO, κ: U-69593) were evaluated in a concentration range of 10^−12 to 10^−5 M, a dose-response curve of each test compound was obtained from the fluorescence values at 665 nm, and EC50 value and the Emax value were calculated. The Emax value was calculated as a ratio of the maximum reaction of the test compound to the maximum reaction of each control drug, which is taken as 100%.
• δ: Catalog No. CT4607, Accession No. NM_000911.2 • μ: Catalog No. CT4605, Accession No. NM_000914 • κ: Catalog No. CT4606, Accession No. NM_000912 (ChanTest Corporation)

[1] = test system: olfactory bulbectomized (OBX) rat; experiment: Hyperemotional reaction inhibition test using olfactory bulbectomized (OBX) rat; type: in vivo; conditions: for hyperemotional reactions of the OBX rats compared with the solvent administration group: maintained until day 14
Description: Hyperemotional Reaction Inhibition Test Using Olfactory Bulbectomized (OBX) Rat
According to the method of Saitoh et al. (Saitoh A, Yamada M, Yamada M, Takahashi K, Yamaguchi K, Murasawa H, Nakatani A, Tatsumi Y, Hirose N, and Kamei J: Antidepressant-like effects of the delta-opioid receptor agonist SNC80 ((+)-4-[(alphaR)-alpha-[(2S,5R)-2,5-dimethyl-4-(2-propenyl)-1-piperazinyl]-(3-methoxyphenyl)methyl]-N,N-diethylbenzamide) in an olfactory bulbectomized rat model, Brain Res., 2008, 1208:160-169), OBX rats were prepared by extracting the rat olfactory bulbs, and then breeding the rats in an isolated circumstance. Hyperemotional reaction was evaluated on the day 14 after the surgical operation and before the division into groups, and 2 hours after the administration on the days 1, 4, 7, 10, and 14 of the administration period according to the hyperemotional reaction evaluation criteria prepared by Gomita et al. (Gomita et al., Behavioral pharmacological and electroencephalographical studies of 7-chloro-1-methyl-5-phenyl-1H-1,5-benzodiazepine-2,4-(3H,5H:)-dione (Clobazam), Folia Pharmacologica Japonica, 82, 267 (1983)). The drug was subcutaneously administered once a day continuously over 14 days. As a positive control drug, fluoxetine, which is a selective serotonin reuptake inhibitor (SSRI), was used. As the solvent, a 1% cyclodextrin (CD) was used.

C57BL/6N male mice = experiment: Mouse elevated plus maze test; type: in vivo; conditions: subcutaneous, 1 mg/kg, 30 minutes before test (FIG. 2)
Procedure: Mouse Elevated Plus Maze Test
For the test, 5 to 6 weeks old C57BL/6N male mice were used. On a plus maze apparatus consisting of a wall-less running route (open arm, width 6 cm, length 30 cm) and a running route with a wall (closed arm, width 6 cm, length 30 cm, height of wall 15 cm), and having a height of 40 cm, a mouse was put so as to be directed to the running route with a wall, and allowed to spontaneously enter into the plus maze. Each test substance was dissolved in saline or 0.005 N HCl in saline, and subcutaneously administered on the back 30 minutes before the start of the test. At the time of the start of the test, video recording with a video camera was started, the time at which the mouse entered into the plus maze is considered to be the start of the test, and exploratory behavior was recorded for 5 minutes. On the basis of the video image, staying times in the running routes were determined, and wall-less running route staying time ratio (%) was calculated.

ICR male mice = experiment: Reserpine-induced Parkinson's disease model mouse; type: in vivo; conditions: reserpine-treated mice, 10 mg/kg s.c.
Procedure: Reserpine-Induced Parkinson's Disease Model Mouse
ICR male mice (5 weeks old, Japan SLC) were obtained, and used after an acclimation period (5 to 12 days).
PD model was prepared with reference to the report of Hille et al. (Exp. Neurol., 2001, 172:189). It was prepared by intraperitoneally administering reserpine (5 mg/kg) 18 to 24 hours before the start of the test. The test was performed by subcutaneously administering a test compound to each mouse on the day of the test, immediately putting the mouse into a cage for monitoring locomotor activity, and measuring the migration distance over 60 minutes.

T1 sequence (P41143 whole entry): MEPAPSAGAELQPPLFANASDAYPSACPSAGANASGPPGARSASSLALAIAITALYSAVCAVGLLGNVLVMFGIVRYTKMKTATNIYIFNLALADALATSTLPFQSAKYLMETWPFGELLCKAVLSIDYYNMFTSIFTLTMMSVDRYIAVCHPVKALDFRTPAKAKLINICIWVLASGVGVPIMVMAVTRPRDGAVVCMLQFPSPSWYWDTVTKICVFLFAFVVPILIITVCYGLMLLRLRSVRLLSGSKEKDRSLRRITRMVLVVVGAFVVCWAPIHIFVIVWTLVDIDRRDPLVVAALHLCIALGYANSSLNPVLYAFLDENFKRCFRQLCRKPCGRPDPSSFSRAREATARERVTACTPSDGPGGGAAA

SMILES: O=C(c1cccc(=O)[nH]1)N1C[C@H]2C[C@@]34CC[C@@H]1[C@@H]2[C@@]31CCN(CC2CC2)[C@@H]4Cc2ccc(O)cc21 [Example 7, 6-((1S,3aR,5aS,6R,11bR,11cS)-14-(cyclopropylmethyl)-10-hydroxy-2,3,3a,4,5,6,7,11c-octahydro-1H-6,11b-(epiminoethano)-1,5a-methanonaphtho[1,2-e]indole-3-carbonyl)pyridin-2(1H)-one]
- CLint scaled (Metabolic stability test): 5.6 mL/min/kg
- wall-less running route staying time ratio (Wistar male rats): significantly increased
- EC50 (human opioid δ receptor; CHO cells expressing human δ receptor, cAMP, in the presence of forskolin): < 3 nM
- Emax (human opioid δ receptor; ratio to maximum reaction of control drug SNC80 taken as 100%): 99%
- hyperemotional reactions of the OBX rats compared with the solvent administration group ([1]; 0.1 mg/kg s.c. once a day, from the day 4 of the administration period): significantly reduced
- hyperemotional reactions of the OBX rats relative to sham surgery group ([1]; 0.1 mg/kg s.c. once a day, on the day 7 of the administration period): restored the condition even to a level comparable to that of the rats of the sham surgery group
- hyperemotional reactions of the OBX rats compared with the solvent administration group ([1]; 1 mg/kg s.c. once a day, from the day 1 of the administration period): significantly reduced
- hyperemotional reactions of the OBX rats relative to sham surgery group ([1]; 1 mg/kg s.c. once a day, on the day 4 of the administration period): restored the condition even to a level comparable to that of the rats of the sham surgery group
- wall-less running route staying time ratio (C57BL/6N male mice): significantly increased
- exploratory behavior (ICR male mice; 60 minutes): significantly increased
- standing up behavior (ICR male mice; not significant (P=0.16)): tendency of increase

Source: patent US11633392B2 (priority 2016, dated 2023)
